Patent US12377601B2, “Fast-eluting three-dimensionally molded object, filament for fast-eluting three-dimensionally molded object, and material for fast-eluting three-dimensionally molded object” (ASTELLAS PHARMA INC., priority 2016, dated 2025)
≈ marks a conversion by molar mass, not a printed value. Like-named read-outs stand apart in the source and are kept apart here.

Assay: Solubility of the active component in Japanese Pharmacopoeia dissolution test fluids
Format: physicochemical
Description: As specific materials, N^2-[(2E)-3-(4-chlorophenyl)-2-propenoyl]-N-[2-oxo-2-(4-{[6-(trifluoromethyl)pyrimidine-4-yl]oxy}piperidine-1-yl)ethyl]-3-pyridine-2-yl-L-alaninamide (manufactured by Astellas Pharma Inc., a solubility to a dissolution test 1st fluid of the Japanese Pharmacopoeia: >100 µM, a solubility to a dissolution test 2nd fluid of the Japanese Pharmacopoeia: 23.2 µM, hereinafter abbreviated as a compound A) was selected as an active component, Poly(vinyl alcohol) [MW 6000] (manufactured by Polysciences, Inc., the same hereinafter unless otherwise specified) was selected as a thermoplastic polymer, maltitol (SweetPearl P200, manufactured by Roquette, the same hereinafter unless otherwise specified) was selected as a sugar alcohol, and Triethyl Citrate (manufactured by Tokyo Chemical Industry Co., Ltd., the same hereinafter unless otherwise specified) was selected as a plasticizer component.

In the case of O=C(/C=C/c1ccc(Cl)cc1)N[C@@H](Cc1ccccn1)C(=O)NCC(=O)N1CCC(Oc2cc(C(F)(F)F)ncn2)CC1 [compound A, N^2-[(2E)-3-(4-chlorophenyl)-2-propenoyl]-N-[2-oxo-2-(4-{[6-(trifluoromethyl)pyrimidine-4-yl]oxy}piperidine-1-yl)ethyl]-3-pyridine-2-yl-L-alaninamide], the solubility (dissolution test 1st fluid of the Japanese Pharmacopoeia, pH 1.2, simulated gastric fluid, read-out: solubility to a dissolution test 1st fluid of the Japanese Pharmacopoeia) is reported as > 100 µM and the solubility (dissolution test 2nd fluid of the Japanese Pharmacopoeia, pH 6.8, aqueous buffer, read-out: solubility to a dissolution test 2nd fluid of the Japanese Pharmacopoeia) is reported as 23.2 µM (≈ 14.3 µg/mL).
